In PMC6013774 (Chemical Science, 2016):

Target: T1, AhbD (Methanosarcina barkeri, UniProt Q46CH7)
T1 sequence (Q46CH7 1-349): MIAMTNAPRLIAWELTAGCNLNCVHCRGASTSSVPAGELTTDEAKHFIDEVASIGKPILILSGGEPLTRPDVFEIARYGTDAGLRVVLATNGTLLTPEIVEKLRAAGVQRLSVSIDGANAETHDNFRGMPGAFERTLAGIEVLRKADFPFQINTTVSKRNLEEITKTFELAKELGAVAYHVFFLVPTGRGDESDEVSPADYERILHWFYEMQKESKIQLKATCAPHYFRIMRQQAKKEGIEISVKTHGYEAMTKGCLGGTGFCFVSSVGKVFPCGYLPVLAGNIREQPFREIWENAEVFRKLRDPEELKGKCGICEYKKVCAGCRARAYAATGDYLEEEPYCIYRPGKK
Assay: tryptophan fluorescence quenching
Format: binding

Kd: 33.9 ± 3.9 µM
Structure (SMILES): CC1=C(CCC(=O)O)c2cc3nc(cc4[nH]c(cc5[nH]c(cc1n2)c(C)c5CCC(=O)O)c(CCC(=O)O)c4C)C(CCC(=O)O)=C3C [COPRO III]
